{"source": "patent US6410054B1", "about": "“Immediate release eplerenone compositions” (G. D. Searle & Co., priority 1998, dated 2002)", "assay": "Single dose study: plasma pharmacokinetics of eplerenone, open lactone ring form, spironolactone", "details": "for Plasma Concentration Of Eplerenone: -0.25 h (predose); for Oral Clearance: eplerenone in plasma; for concentration at 12 h / AUC(0-t) / Cmax / MRT / Tmax / concentration at 0.5 h / concentration at 1 h / concentration at 2 h / concentration at 3 h / concentration at 4 h / concentration at 6 h / concentration at 8 h / concentration at 16 h / concentration at 24 h / concentration at 28 h / concentration at 32 h / concentration at 48 h / concentration at 72 h / concentration at 96 h / half-life: male, human, po", "method": "The pharmacokinetics, safety and antialdosterone activity of single 10, 50, 100, 300 and 1000 mg oral doses of eplerenone were evaluated in a single-center, randomized, double-blind, placebo-controlled study.\nThe study employed seven parallel dose groups of eight healthy male humans.\nThe eplerenone capsules administered corresponded to the capsules (or combinations of the capsules) disclosed in Examples 4, 5, 7 and 8 above. The placebo was a conventional capsule containing lactose. […] The fludrocortisone used in the study consisted of commercially available fludrocortisone tablets (Florinef®, Squibb BV).\nThe subjects, who underwent a ten hour food fast prior to administration of the dose, received a single oral dose of one of the study medications together with about 180 mL of water at 0800 hours. […] Each dose of fludrocortisone was administered with 150 mL of water except for the 1.0 mg dose which was administered with 200 mL of water.\nThe plasma samples collected from subjects dosed with eplerenone were assayed for concentrations of eplerenone and the open lactone ring form of eplerenone. […] A subset of plasma samples was also assayed for testosterone levels. The urine collected was analyzed to determine concentrations and amounts of eplerenone and the open lactone ring form of eplerenone, the amount of sodium and potassium excreted, and the urinary log10 (sodium/potassium) ratio.", "data": [{"smiles": "COC(=O)C1CC2=CC(=O)CCC2(C)C23OC2CC2(C)C(CC[C@@]24CCC(=O)O4)C13", "note": "(stereo partly drawn) [eplerenone, methyl hydrogen 9,11α-epoxy-17α-hydroxy-3-oxopregn-4-ene-7α,21-dicarboxylate, γ-lactone]", "values": [{"measurement": "Plasma Concentration Of Eplerenone", "setting": "10 mg single oral dose", "value": 0, "unit": "ng/mL"}, {"measurement": "Plasma Concentration Of Eplerenone", "setting": "50 mg single oral dose", "value": 0, "unit": "ng/mL"}, {"measurement": "Plasma Concentration Of Eplerenone", "setting": "100 mg single oral dose", "value": 0, "unit": "ng/mL"}, {"measurement": "Plasma Concentration Of Eplerenone", "setting": "300 mg single oral dose", "value": 0, "unit": "ng/mL"}, {"measurement": "Plasma Concentration Of Eplerenone", "setting": "1000 mg single oral dose", "value": 0, "unit": "ng/mL"}, {"measurement": "Oral Clearance", "setting": "10 mg single oral dose", "value": 13.3, "unit": "L/h"}, {"measurement": "Oral Clearance", "setting": "50 mg single oral dose", "value": 13.7, "unit": "L/h"}, {"measurement": "Oral Clearance", "setting": "100 mg single oral dose", "value": 13.1, "unit": "L/h"}, {"measurement": "Oral Clearance", "setting": "300 mg single oral dose", "value": 17.6, "unit": "L/h"}, {"measurement": "Oral Clearance", "setting": "1000 mg single oral dose", "value": 18.4, "unit": "L/h"}, {"measurement": "concentration at 12 h", "setting": "in vivo, 50 mg", "value": 49.4, "unit": "ng/mL"}, {"measurement": "AUC(0-t)", "setting": "plasma, 10 mg", "value": 942, "unit": "ng·h/mL"}, {"measurement": "Cmax", "setting": "plasma, 10 mg", "value": 191, "unit": "ng/mL"}, {"measurement": "MRT", "setting": "plasma, 10 mg", "value": 3.9, "unit": "h"}, {"measurement": "Tmax", "setting": "plasma, 10 mg", "value": 1.3, "unit": "h"}, {"measurement": "concentration at 0.5 h", "setting": "plasma, 10 mg", "value": 130, "unit": "ng/mL"}, {"measurement": "concentration at 1 h", "setting": "plasma, 10 mg", "value": 177, "unit": "ng/mL"}, {"measurement": "concentration at 2 h", "setting": "plasma, 10 mg", "value": 159, "unit": "ng/mL"}, {"measurement": "concentration at 3 h", "setting": "plasma, 10 mg", "value": 125, "unit": "ng/mL"}, {"measurement": "concentration at 4 h", "setting": "plasma, 10 mg", "value": 106, "unit": "ng/mL"}, {"measurement": "concentration at 6 h", "setting": "plasma, 10 mg", "value": 65.3, "unit": "ng/mL"}, {"measurement": "concentration at 8 h", "setting": "plasma, 10 mg", "value": 34.4, "unit": "ng/mL"}, {"measurement": "concentration at 12 h", "setting": "plasma, 10 mg", "value": 6, "unit": "ng/mL"}, {"measurement": "concentration at 16 h", "setting": "plasma, 10 mg", "value": 6, "unit": "ng/mL"}, {"measurement": "concentration at 24 h", "setting": "plasma, 10 mg", "value": 1.7, "unit": "ng/mL"}, {"measurement": "concentration at 28 h", "setting": "plasma, 10 mg", "value": 0, "unit": "ng/mL"}, {"measurement": "concentration at 32 h", "setting": "plasma, 10 mg", "value": 0, "unit": "ng/mL"}, {"measurement": "concentration at 48 h", "setting": "plasma, 10 mg", "value": 0, "unit": "ng/mL"}, {"measurement": "concentration at 72 h", "setting": "plasma, 10 mg", "value": 0, "unit": "ng/mL"}, {"measurement": "concentration at 96 h", "setting": "plasma, 10 mg", "value": 0, "unit": "ng/mL"}, {"measurement": "half-life", "setting": "plasma, 10 mg", "value": 2.1, "unit": "h"}, {"measurement": "AUC(0-t)", "setting": "plasma, 50 mg", "value": 4020, "unit": "ng·h/mL"}, {"measurement": "Cmax", "setting": "plasma, 50 mg", "value": 797, "unit": "ng/mL"}, {"measurement": "MRT", "setting": "plasma, 50 mg", "value": 4.2, "unit": "h"}, {"measurement": "Tmax", "setting": "plasma, 50 mg", "value": 1.4, "unit": "h"}, {"measurement": "concentration at 0.5 h", "setting": "plasma, 50 mg", "value": 552, "unit": "ng/mL"}, {"measurement": "concentration at 1 h", "setting": "plasma, 50 mg", "value": 721, "unit": "ng/mL"}, {"measurement": "concentration at 2 h", "setting": "plasma, 50 mg", "value": 693, "unit": "ng/mL"}, {"measurement": "concentration at 3 h", "setting": "plasma, 50 mg", "value": 592, "unit": "ng/mL"}, {"measurement": "concentration at 4 h", "setting": "plasma, 50 mg", "value": 457, "unit": "ng/mL"}, {"measurement": "concentration at 6 h", "setting": "plasma, 50 mg", "value": 270, "unit": "ng/mL"}, {"measurement": "concentration at 8 h", "setting": "plasma, 50 mg", "value": 146, "unit": "ng/mL"}, {"measurement": "concentration at 16 h", "setting": "plasma, 50 mg", "value": 18.3, "unit": "ng/mL"}, {"measurement": "concentration at 24 h", "setting": "plasma, 50 mg", "value": 3, "unit": "ng/mL"}, {"measurement": "concentration at 28 h", "setting": "plasma, 50 mg", "value": 1.8, "unit": "ng/mL"}, {"measurement": "concentration at 32 h", "setting": "plasma, 50 mg", "value": 0, "unit": "ng/mL"}, {"measurement": "concentration at 48 h", "setting": "plasma, 50 mg", "value": 0, "unit": "ng/mL"}, {"measurement": "concentration at 72 h", "setting": "plasma, 50 mg", "value": 0, "unit": "ng/mL"}, {"measurement": "concentration at 96 h", "setting": "plasma, 50 mg", "value": 0, "unit": "ng/mL"}, {"measurement": "half-life", "setting": "plasma, 50 mg", "value": 2.9, "unit": "h"}, {"measurement": "AUC(0-t)", "setting": "plasma, 100 mg", "value": 7940, "unit": "ng·h/mL"}, {"measurement": "Cmax", "setting": "plasma, 100 mg", "value": 1500, "unit": "ng/mL"}, {"measurement": "MRT", "setting": "plasma, 100 mg", "value": 4.9, "unit": "h"}, {"measurement": "Tmax", "setting": "plasma, 100 mg", "value": 1.5, "unit": "h"}, {"measurement": "concentration at 0.5 h", "setting": "plasma, 100 mg", "value": 758, "unit": "ng/mL"}, {"measurement": "concentration at 1 h", "setting": "plasma, 100 mg", "value": 1220, "unit": "ng/mL"}, {"measurement": "concentration at 2 h", "setting": "plasma, 100 mg", "value": 1360, "unit": "ng/mL"}, {"measurement": "concentration at 3 h", "setting": "plasma, 100 mg", "value": 1110, "unit": "ng/mL"}, {"measurement": "concentration at 4 h", "setting": "plasma, 100 mg", "value": 900, "unit": "ng/mL"}, {"measurement": "concentration at 6 h", "setting": "plasma, 100 mg", "value": 558, "unit": "ng/mL"}, {"measurement": "concentration at 8 h", "setting": "plasma, 100 mg", "value": 275, "unit": "ng/mL"}, {"measurement": "concentration at 12 h", "setting": "plasma, 100 mg", "value": 124, "unit": "ng/mL"}, {"measurement": "concentration at 16 h", "setting": "plasma, 100 mg", "value": 41.9, "unit": "ng/mL"}, {"measurement": "concentration at 24 h", "setting": "plasma, 100 mg", "value": 13.1, "unit": "ng/mL"}, {"measurement": "concentration at 28 h", "setting": "plasma, 100 mg", "value": 6.1, "unit": "ng/mL"}, {"measurement": "concentration at 32 h", "setting": "plasma, 100 mg", "value": 3, "unit": "ng/mL"}, {"measurement": "concentration at 48 h", "setting": "plasma, 100 mg", "value": 0, "unit": "ng/mL"}, {"measurement": "concentration at 72 h", "setting": "plasma, 100 mg", "value": 0, "unit": "ng/mL"}, {"measurement": "concentration at 96 h", "setting": "plasma, 100 mg", "value": 0, "unit": "ng/mL"}, {"measurement": "half-life", "setting": "plasma, 100 mg", "value": 4.9, "unit": "h"}]}]}
